According to patent US11667645B2, “Granzyme B directed imaging and therapy” (CytoSite Biopharma Inc., priority 2018, dated 2023):

target: Granzyme B (human lymphocytes) (Homo sapiens (Human), UniProt P10144); assay: human Granzyme B biochemical assay; conditions: Granzyme B (human lymphocytes) 5 nM, substrate Ac-IETD-AFC 200 μM, Cpd incubation with enzyme 30 mins, 22° C., read time 60 mins; read-out: IC50
Description: The compounds of Formula I-VIII described above can be tested using the human Granzyme B biochemical assay provided below.
Materials: • 1. Granzyme B (human lymphocytes) Enzyme: Enzo Lifesciences, Cat #ALX-200-602-0010 • 2. Substrate (Ac-IETD-AFC): Enzo Lifesciences, Cat #ALX-260-110-M010 • 3. Standard inhibitor (Compound 20-Isomer3): Synthesized internally in TCG • 4. Dimethyl sulfoxide (DMSO): Sigma-Aldrich, Cat #41639 • 5. HEPES: Gibco, Cat #15630-080 • 6. Calcium chloride: Sigma-Aldrich, Cat #C-5080 • 7. Distilled water: Gibco, Cat #15230-162 • 8. Bovine serum albumin (BSA): Sigma-Aldrich, Cat #A3059 • 9. Black, clear bottom PDL plate (384 wells): Greiner bio-one, Cat #781946 • 10. Polypropylene plate (384 wells): Corning, Cat #3657 Assay Buffer Composition:
Compound Preparation: • 1. DMSO is added to the respective compound vial to make 10 mM Compound stock solution, which is stored at −20° C. • 2. 10 mM Compound stock solution is thawed and 1 mM DMSO stock solution is prepared by adding 45 μl of DMSO to 5 μl of 10 mM compound stock solution. • 3. 1 mM DMSO stock solution is serially diluted (3.16 fold) by adding 10 μl of 1 mM DMSO stock to 21.6 μl of DMSO and mixed well. 10 μl of the resulting solution is then added to 21.6 μl of DMSO and mixed well. This process is continued to create 11 dilution points for the assay standard inhibitor and 8 dilution points for test compounds in 384 well polypropylene plate. • 4. 2 μl of each dilution are dispensed in assay ready plate. • 5. Each well is then diluted 25 fold by adding 48 μl of assay buffer to 2 μl of compound in assay ready plate to make Compound working stock. Enzyme Preparation: • 1. Supplied Granzyme B (human lymphocytes) enzyme is reconstituted to 1 mg/ml (about 31.25 μM) and 1 μl aliquots are kept in −80° C. • 2. 1 μl aliquot is diluted to 625 nM by adding 49 μl of assay buffer containing 0.1% BSA and gently mixed. • 3. 10 nM enzyme working stock is prepared by adding assay buffer containing 0.1% BSA. Substrate Preparation: • 1. Supplied substrate (Ac-IETD-AFC) is reconstituted by adding DMSO to make 10 mM stock, aliquoted and stored in −80° C. • 2. 4 mM substrate mid stock is prepared by adding DMSO. • 3. Substrate working stock i.e. 800 μM is prepared by adding assay buffer. Assay Protocol: • 1. 10 μl of serially diluted Compound working stock (start dose 40 μM) is added from assay ready plate to assay plate according to the plate map. • 2. Positive control (40 μM of standard inhibitor) and negative control (4% DMSO buffer) are added to the respective wells. • 3. 20 μl of Enzyme working stock is added to assay plate and gently mixed. • 4. The plate is incubated at 22° C. for 30 mins and spun at 130 g for 1 minute. • 5. After incubation, 10 μl of Substrate working stock is added to respective wells and mixed (Assay plate is maintained in dark after substrate addition). • 6. The plate is incubated at 22° C. for 60 mins and spun at 130 g for 1 minute. • 7. Fluorescence read (RFU) (Ex: 400 nm/Em: 505 nm) is taken after 60 mins in EnVision Multimode plate reader. Final Assay Concentration:
Data Analysis: • 1. The RFU read is analyzed to calculate percent inhibition by normalizing with positive and negative controls taken as 100% and 0% effect respectively in Microsoft excel. • 2. Graph is generated by putting the analyzed data in GraphPad prism 5.0 software to get IC50 value for each compound.

Sequence of Granzyme B (human lymphocytes) (P10144 21-247): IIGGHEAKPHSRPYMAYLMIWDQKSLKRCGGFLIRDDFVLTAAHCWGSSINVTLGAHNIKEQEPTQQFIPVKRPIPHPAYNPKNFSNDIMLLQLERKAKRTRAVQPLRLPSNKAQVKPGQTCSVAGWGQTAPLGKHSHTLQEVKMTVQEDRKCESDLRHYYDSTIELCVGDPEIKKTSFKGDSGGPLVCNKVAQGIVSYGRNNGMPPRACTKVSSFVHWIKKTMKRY

Question: For `CC(C)[C@H](NC(=O)c1cccc(F)c1)C(=O)N[C@H]1CCc2cccc3c2N(C1=O)[C@H](C(=O)NCc1c[nH]nn1)C3` [Compound C048, (2S,5S)-5-[(S)-2-(3-Fluoro-benzoylamino)-3-methyl-butyrylamino]-4-oxo-1,2,4,5,6,7-hexahydro-azepino[3,2,1-hi]indole-2-carboxylic acid (1H-[1,2,3]triazol-4-ylmethyl)-amide], which IC50 is on record?
Answer: 0.001 to 0.3 µM

Question: How did the IC50 turn out when `O=C(N[C@H](C(=O)N[C@H]1CCc2cccc3c2N(C1=O)[C@H](C(=O)NCc1c[nH]nn1)C3)C1CCCCC1)c1ccccc1` [Compound C079, (2S,5S)-5-((S)-2-Benzoylamino-2-cyclohexyl-acetylamino)-4-oxo-1,2,4,5,6,7-hexahydro-azepino[3,2,1-hi]indole-2-carboxylic acid (1H-[1,2,3]triazol-4-ylmethyl)-amide] was run?
Answer: 1 to 5 µM

Question: Which IC50 does the source give for `CC[C@H](C)[C@H](NC(=O)COCCF)C(=O)N[C@H]1CCc2cccc3c2N(C1=O)[C@H](C(=O)NCc1cscn1)C3` [Compound C115, (2S,5S)-5-{(2S,3S)-2-[2-(2-Fluoro-ethoxy)-acetylamino]-3-methyl-pentanoylamino}-4-oxo-1,2,4,5,6,7-hexahydro-azepino[3,2,1-hi]indole-2-carboxylic acid (thiazol-4-ylmethyl)-amide] here?
Answer: > 5 µM

Question: With `CC(=O)N[C@H](C(=O)N[C@H]1CCc2cccc3c2N(C1=O)[C@H](C(=O)NCc1c[nH]nn1)C3)C1CCCCC1` [Compound C080, (2S,5S)-5-((S)-2-Acetylamino-2-cyclohexyl-acetylamino)-4-oxo-1,2,4,5,6,7-hexahydro-azepino[3,2,1-hi]indole-2-carboxylic acid (1H-[1,2,3]triazol-4-ylmethyl)-amide] as the molecule, how does the IC50 read?
Answer: 0.301 to 1 µM

Question: Which IC50 does the source give for `CC(=O)N[C@H]1CCc2cccc3c2N(C1=O)[C@H](C(=O)NCc1c[nH]nn1)C3` [Compound C148, (2S,5S)-5-Acetylamino-4-oxo-1,2,4,5,6,7-hexahydro-azepino[3,2,1-hi]indole-2-carboxylic acid (1H-[1,2,3]triazol-4-ylmethyl)-amide] here?
Answer: > 5 µM

Question: With `O=C(Cc1ccccc1)N[C@@H](Cc1ccc(F)cc1)C(=O)N[C@H]1CCc2cccc3c2N(C1=O)[C@H](C(=O)NCc1c[nH]nn1)C3` [Compound C022, (2S,5S)-5-[(S)-3-(4-Fluoro-phenyl)-2-phenylacetylamino-propionylamino]-4-oxo-1,2,4,5,6,7-hexahydro-azepino[3,2,1-hi]indole-2-carboxylic acid (1H-[1,2,3]triazol-4-ylmethyl)-amide] as the molecule, how does the IC50 read?
Answer: > 5 µM

Question: With `O=C(N[C@@H](Cc1ccc(O)cc1)C(=O)N[C@H]1CCc2cccc3c2N(C1=O)[C@H](C(=O)NCc1c[nH]nn1)C3)c1ccccc1` [Compound C042, (2S,5S)-5-[(S)-2-Benzoylamino-3-(4-hydroxy-phenyl)-propionylamino]-4-oxo,2,4,5,6,7-hexahydro-azepino[3,2,1-hi]indole-2-carboxylic acid (1H-[1,2,3]triazol-4-ylmethyl)-amide] as the molecule, how does the IC50 read?
Answer: > 5 µM

Question: For `CC(=O)N[C@@H](CC(C)C)C(=O)N[C@H]1CCc2cccc3c2N(C1=O)[C@H](C(=O)NCc1c[nH]nn1)C3` [Compound C027, (2S,5S)-5-((S)-2-Acetylamino-4-methyl-pentanoylamino)-4-oxo-1,2,4,5,6,7-hexahydro-azepino[3,2,1-hi]indole-2-carboxylic acid (1H-[1,2,3]triazol-4-ylmethyl)-amide], which IC50 is on record?
Answer: 1 to 5 µM

Question: Which IC50 does the source give for `CC(C)C[C@H](NC(=O)Cc1csc2ccccc12)C(=O)N[C@H]1CCc2cccc3c2N(C1=O)[C@H](C(=O)NCc1c[nH]nn1)C3` [Compound C005, (2S,5S)-5-[(S)-2-(2-Benzo[b]thiophen-3-yl-acetylamino)-4-methyl-pentanoylamino]-4-oxo-1,2,4,5,6,7-hexahydro-azepino[3,2,1-hi]indole-2-carboxylic acid (1H-[1,2,3]triazol-4-ylmethyl)-amide] here?
Answer: 1 to 5 µM

Question: How did the IC50 turn out when `CC(C)C[C@H](NC(=O)c1ccccc1)C(=O)N[C@H]1CCc2cccc3c2N(C1=O)[C@H](C(=O)NCc1c[nH]nn1)C3` [Compound C038, (2S,5S)-5-((S)-2-Benzoylamino-4-methyl-pentanoylamino)-4-oxo-1,2,4,5,6,7-hexahydro-azepino[3,2,1-hi]indole-2-carboxylic acid (1H-[1,2,3]triazol-4-ylmethyl)-amide] was run?
Answer: 0.301 to 1 µM

Question: Which IC50 does the source give for `COC(=O)[C@@H](C)NC(=O)[C@@H]1Cc2cccc3c2N1C(=O)[C@@H](NC(=O)[C@@H](NC(C)=O)C(C)C)CC3` [Compound C088, (R)-2-{[(2S,5S)-5-((S)-2-Acetylamino-3-methyl-butyrylamino)-4-oxo-1,2,4,5,6,7-hexahydro-azepino[3,2,1-hi]indole-2-carbonyl]-amino}-propionicacid methyl ester] here?
Answer: > 5 µM

Question: How did the IC50 turn out when `O=C(O)CC[C@H](NC(=O)Cc1csc2ccccc12)C(=O)N[C@H]1CCc2cccc3c2N(C1=O)[C@H](C(=O)NCc1c[nH]nn1)C3` [Compound C008, (S)-4-(2-Benzo[b]thiophen-3-yl-acetylamino)-4-{(2S,5S)-4-oxo-2-[(1H-[1,2,3]triazol-4-ylmethyl)-carbamoyl]-1,2,4,5,6,7-hexahydro-azepino[3,2,1-hi]indol-5-ylcarbamoyl}butyric acid] was run?
Answer: > 5 µM

Question: How did the IC50 turn out when `CC[C@H](C)[C@H](NC(=O)COCCF)C(=O)N[C@H]1CCc2cccc3c2N(C1=O)[C@H](C(=O)NCc1ccccc1C)C3` [Compound C127, (2S,5S)-5-{(2S,3S)-2-[2-(2-Fluoro-ethoxy)-acetylamino]-3-methyl-pentanoylamino}-4-oxo-1,2,4,5,6,7-hexahydro-azepino[3,2,1-hi]indole-2-carboxylic acid 2-methyl-benzylamide] was run?
Answer: > 5 µM

Question: How did the IC50 turn out when `CC[C@H](C)[C@H](NC(=O)COCCF)C(=O)N[C@H]1CS(=O)(=O)c2cccc3c2N(C1=O)[C@H](C(=O)NCc1c[nH]nn1)C3` [Compound C172, (1S,8R)-8-{(2S,3S)-2-[2-(2-Fluoro-ethoxy)-acetylamino]-3-methyl-pentanoylamino}-6,6,9-trioxo-1,2,6,7,8,9-hexahydro-6lambda*6*- thia-9a-aza-benzo[cd]azulene-1-carboxylic acid (1H-[1,2,3]triazol-4-ylmethyl)-amide] was run?
Answer: 0.301 to 1 µM

Question: Which IC50 does the source give for `CC[C@H](C)[C@H](NC(=O)COCCF)C(=O)N[C@H]1CCc2cccc3c2N(C1=O)[C@H](C(=O)NCc1cn[nH]c1)C3` [Compound C116] here?
Answer: > 5 µM

Question: How did the IC50 turn out when `CC[C@H](C)[C@H](NC(=O)COCCF)C(=O)N[C@H]1CCc2cccc3c2N(C1=O)[C@H](C(=O)NCc1cc[nH]c1)C3` [Compound C107, (2S,5S)-5-{(2S,3S)-2-[2-(2-Fluoro-ethoxy)-acetylamino]-3-methyl-pentanoylamino}-4-oxo-1,2,4,5,6,7-hexahydro-azepino[3,2,1-hi]indole-2-carboxylic acid (1H-pyrrol-3-ylmethyl)-amide] was run?
Answer: > 5 µM

Question: For `COC(=O)C[C@H](NC(=O)[C@@H]1Cc2cccc3c2N1C(=O)[C@@H](NC(=O)[C@@H](NC(C)=O)C(C)C)CC3)C(=O)OC` [Compound C093, (S)-2-{[(2S,5S)-5-((S)-2-Acetylamino-3-methyl-butyrylamino)-4-oxo-1,2,4,5,6,7-hexahydro-azepino[3,2,1-hi]indole-2-carbonyl]-amino}-succinic acid dimethyl ester], which IC50 is on record?
Answer: > 5 µM

Question: For `CC[C@H](C)[C@H](NC(=O)COCCF)C(=O)N[C@H]1CCc2cccc3c2N(C1=O)[C@H](C(=O)NCc1ccccc1Cl)C3` [Compound C130, (2S,5S)-5-{(2S,3S)-2-[2-(2-Fluoro-ethoxy)-acetylamino]-3-methyl-pentanoylamino}-4-oxo-1,2,4,5,6,7-hexahydro-azepino[3,2,1-hi]indole-2-carboxylic acid 2-chloro-benzylamide], which IC50 is on record?
Answer: > 5 µM
